Reference: the supplement of paper PMC6045584
± gives the standard deviation of the averaged measurements.

How the values were obtained:
EVEROLIMUS [1] = compound: T1, CO[C@H]1C[C@@H]2CC[C@@H](C)[C@@](O)(O2)C(=O)C(=O)N2CCCC[C@H]2C(=O)O[C@H]([C@H](C)C[C@@H]2CC[C@@H](OCCO)[C@H](OC)C2)CC(=O)[C@H](C)/C=C(\C)[C@@H](O)[C@@H](OC)C(=O)[C@H](C)C[C@H](C)/C=C/C=C/C=C/1C [EVEROLIMUS]; assay: area under dose-response curve of surviving fraction (unscaled, Aref=0) (surviving fraction x log10(nM)); higher = more resistant; settings: exposure time: 5 days; dose range 0.5-1000 nM
Summary of the method: (§1)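 Surviving fractions were fitted by 3-parameter logistic regression in the drc R package to give dose-response survival curves. They came from tumour cell lines treated for five days with eight inhibitor concentrations from 0.5 to 1000 nM and read by CellTiter-Glo luminescence against DMSO-only wells. The area under the curve is the unscaled activity area. It was calculated over log10 dose with Aref = 0.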

METHOTREXATE [2] = compound: T2, CN(Cc1cnc2nc(N)nc(N)c2n1)c1ccc(C(=O)N[C@@H](CCC(=O)O)C(=O)O)cc1 [METHOTREXATE]; assay: as above; settings: exposure time: 5 days; dose range 0.5-1000 nM
Summary of the method: as §1

MK2206 [3] = compound: T3, NC1(c2ccc(-c3nc4ccn5c(=O)[nH]nc5c4cc3-c3ccccc3)cc2)CCC1 [MK2206]; assay: as above; settings: exposure time: 5 days; dose range 0.5-1000 nM
Summary of the method: as §1

ERLOTINIB [4] = compound: T4, C#Cc1cccc(Nc2ncnc3cc(OCCOC)c(OCCOC)cc23)c1 [ERLOTINIB]; assay: as above; settings: exposure time: 5 days; dose range 0.5-1000 nM
Summary of the method: as §1

GEMCITABINE = compound: Nc1ccn([C@@H]2O[C@H](CO)[C@@H](O)C2(F)F)c(=O)n1 [GEMCITABINE]; assay: as above; settings: exposure time: 5 days; dose range 0.5-1000 nM
Summary of the method: as §1

EVEROLIMUS [5] = compound: T1, EVEROLIMUS; assay: surviving fraction relative to DMSO-only wells; higher = less growth inhibition; settings: exposure time: 5 days
Summary of the method: (§2)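 Continuous five-day exposure to inhibitors at 0.5, 1, 5, 10, 50, 100, 500 and 1000 nM started 24 hours after log-phase tumour cell lines were seeded at 250–500 cells per well in 384-well plates. Luminescence was read after 10 minutes at room temperature. Viability is given as surviving fraction, meaning CellTiter-Glo luminescence normalised to the median of DMSO-only wells.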

METHOTREXATE [6] = compound: T2, METHOTREXATE; assay: as above; settings: exposure time: 5 days
Summary of the method: as §2

MK2206 [7] = compound: T3, MK2206; assay: as above; settings: exposure time: 5 days
Summary of the method: as §2

ERLOTINIB [8] = compound: T4, ERLOTINIB; assay: as above; settings: exposure time: 5 days
Summary of the method: as §2

## CCK81 LARGE INTESTINE
EVEROLIMUS [1]
  area under dose-response curve: 2.28
METHOTREXATE [2]
  area under dose-response curve: 2.37
MK2206 [3]
  area under dose-response curve: 2.67
ERLOTINIB [4]
  area under dose-response curve: 2.36
GEMCITABINE
  area under dose-response curve: 1.48
EVEROLIMUS [5]; 0.5 nM
  surviving fraction: 0.812 ± 0.075
EVEROLIMUS [5]; 1 nM
  surviving fraction: 0.754 ± 0.031
EVEROLIMUS [5]; 5 nM
  surviving fraction: 0.701 ± 0.11
EVEROLIMUS [5]; 10 nM
  surviving fraction: 0.711 ± 0.14
EVEROLIMUS [5]; 50 nM
  surviving fraction: 0.715 ± 0.041
EVEROLIMUS [5]; 100 nM
  surviving fraction: 0.756 ± 0.048
EVEROLIMUS [5]; 500 nM
  surviving fraction: 0.551 ± 0.1
EVEROLIMUS [5]; 1000 nM
  surviving fraction: 0.5123 ± 0.004
METHOTREXATE [6]; 0.5 nM
  surviving fraction: 0.75 ± 0.13
METHOTREXATE [6]; 1 nM
  surviving fraction: 0.843 ± 0.061
METHOTREXATE [6]; 5 nM
  surviving fraction: 0.716 ± 0.15
METHOTREXATE [6]; 10 nM
  surviving fraction: 0.697 ± 0.029
METHOTREXATE [6]; 50 nM
  surviving fraction: 0.701 ± 0.054
METHOTREXATE [6]; 100 nM
  surviving fraction: 0.663 ± 0.083
METHOTREXATE [6]; 500 nM
  surviving fraction: 0.697 ± 0.077
METHOTREXATE [6]; 1000 nM
  surviving fraction: 0.714 ± 0.095
MK2206 [7]; 0.5 nM
  surviving fraction: 0.868 ± 0.21
MK2206 [7]; 1 nM
  surviving fraction: 0.793 ± 0.089
MK2206 [7]; 5 nM
  surviving fraction: 0.751 ± 0.14
MK2206 [7]; 10 nM
  surviving fraction: 0.809 ± 0.053
MK2206 [7]; 50 nM
  surviving fraction: 0.728 ± 0.075
MK2206 [7]; 100 nM
  surviving fraction: 0.798 ± 0.098
MK2206 [7]; 500 nM
  surviving fraction: 0.944 ± 0.13
MK2206 [7]; 1000 nM
  surviving fraction: 0.806 ± 0.049
ERLOTINIB [8]; 0.5 nM
  surviving fraction: 0.779 ± 0.2
ERLOTINIB [8]; 5 nM
  surviving fraction: 0.794 ± 0.077
ERLOTINIB [8]; 10 nM
  surviving fraction: 0.774 ± 0.13
ERLOTINIB [8]; 50 nM
  surviving fraction: 0.774 ± 0.11
ERLOTINIB [8]; 100 nM
  surviving fraction: 0.749 ± 0.065
ERLOTINIB [8]; 500 nM
  surviving fraction: 0.19 ± 0.012
ERLOTINIB [8]; 1000 nM
  surviving fraction: 0.78 ± 0.031
